Source: PMC9533837 (Antiviral Research, 2003)
≈ marks a conversion by molar mass, not a printed value. Entries after “also recorded” stand apart in the source; their conditions may differ. Like-named read-outs stand apart in the source and are kept apart here.

Columns and labels:
[1] = system: orthopoxviruses (VAR-BSH, VAR-YAM, VAR-GAR, MPX, CPX, VAC); assay: organism not typed; type: cell-based
VAC Copenhagen [2] = assay: microbe, parasite or virus in culture; type: cell-based, vaccinia virus
[3] = system: VAR-BSH (1975 Bangladesh isolate of VAR major); assay: organism not typed; type: cell-based, variola major
CPX Brighton [4] = assay: organism not typed; type: cell-based, cowpox
[5] = system: MPX Zaire (V79-1-005-Scab); assay: organism not typed; type: cell-based, monkeypox
CPX = system: CPX; set-up: species or system mice; conditions: mouse, in vivo
Vero cells = conditions: African green monkey
CPX Brighton [6] = assay: organism not typed; type: cell-based, cowpox; remark: listed apart in the source
[7] = system: VAR-YAM (1946 Japan Yamada isolate of VAR major); assay: organism not typed; type: cell-based, variola major
[8] = system: VAR-GAR (1966 Brazil Garcia isolate of VAR minor); assay: organism not typed; type: cell-based, variola minor
[9] = system: VAR-BSH (1975 Bangladesh isolate of VAR major); assay: organism not typed; type: cell-based, variola major; remark: listed apart in the source
[10] = system: MPX Zaire (V79-1-005-Scab); assay: organism not typed; type: cell-based, monkeypox; remark: listed apart in the source
[11] = system: VAR-GAR (1966 Brazil Garcia isolate of VAR minor); assay: organism not typed; type: cell-based, variola minor; remark: listed apart in the source
VAC Copenhagen [12] = assay: microbe, parasite or virus in culture; type: cell-based, vaccinia virus; remark: listed apart in the source
[13] = system: VAR-YAM (1946 Japan Yamada isolate of VAR major); assay: organism not typed; type: cell-based, variola major; remark: listed apart in the source
LLC-MK2 cells = conditions: rhesus monkey
VAC = system: VAC; set-up: species or system mice; conditions: mouse, in vivo

`O=C1Nc2ccc(Cl)cc2[C@@](C#CC2CC2)(C(F)(F)F)O1` [efavirenz] was tested, and the “inhibitory activity against the orthopoxviruses tested (in words)” value (from here on “inhibitory activity”) [1] was “inactive”.

With `Nc1nccc2c1ncn2C1C=C(CO)C(O)C1O` (single isomer, unassigned; (-)) [C3-Npc A, (−)-9-[trans-2′-trans-3′-dihydroxy-4′-hydroxymethyl-cyclopent-4′-enyl]-3-deazaadenine] the “Therapeutic index (TI) VAC Vero” value (VAC Copenhagen [2]) was 5000, the IC50 (VAC Copenhagen [2]; Orthopoxvirus vaccinia, Vero, read-out: IC50 VAC Vero) was 0.02 µg/mL (≈ 0.0763 µM) and the “Therapeutic index (TI) VAR-BSH LLC-MK2” value [3] was 213. For the same molecule, the IC50 ([3]; LLC-MK2, read-out: IC50 VAR-BSH LLC-MK2) was 0.47 µg/mL (≈ 1.79 µM), the “Therapeutic index (TI) CPX LLC-MK2” value (CPX Brighton [4]) was 1.0 and the IC50 (CPX Brighton [4]; LLC-MK2, read-out: IC50 CPX LLC-MK2) was > 100 µg/mL. For the same molecule, the “Therapeutic index (TI) MPX Vero” value [5] was 10000, the IC50 ([5]; Vero, read-out: IC50 MPX Vero) was 0.01 µg/mL (≈ 0.0381 µM) and the “protective effect on CPX-infected mice” value (CPX) was “modest protective effect”. For the same molecule, the “Cytotoxicity TC50 Vero” value (Vero cells) was >100 µg/mL, the “Therapeutic index (TI) CPX Vero” value (CPX Brighton [6]) was 1.0 and the IC50 (CPX Brighton [6]; Vero, read-out: IC50 CPX Vero) was > 100 µg/mL. The “Therapeutic index (TI) VAR-YAM LLC-MK2” value [7] was 417, the IC50 ([7]; LLC-MK2, read-out: IC50 VAR-YAM LLC-MK2) was 0.24 µg/mL (≈ 0.915 µM) and the “Therapeutic index (TI) VAR-GAR Vero” value [8] was 2500. For the same molecule, the IC50 ([8]; Vero, read-out: IC50 VAR-GAR Vero) was 0.04 µg/mL (≈ 0.153 µM), the “Therapeutic index (TI) VAR-BSH Vero” value [9] was 3333 and the IC50 ([9]; Vero, read-out: IC50 VAR-BSH Vero) was 0.03 µg/mL (≈ 0.114 µM). The “Therapeutic index (TI) MPX LLC-MK2” value [10] was 2000, the IC50 ([10]; LLC-MK2, read-out: IC50 MPX LLC-MK2) was 0.05 µg/mL (≈ 0.191 µM) and the “Therapeutic index (TI) VAR-GAR LLC-MK2” value [11] was 222. For the same molecule, the IC50 ([11]; LLC-MK2, read-out: IC50 VAR-GAR LLC-MK2) was 0.45 µg/mL (≈ 1.72 µM), the “Therapeutic index (TI) VAC LLC-MK2” value (VAC Copenhagen [12]) was 2000 and the IC50 (VAC Copenhagen [12]; Orthopoxvirus vaccinia, LLC-MK2, read-out: IC50 VAC LLC-MK2) was 0.05 µg/mL (≈ 0.191 µM). For the same molecule, the “Therapeutic index (TI) VAR-YAM Vero” value [13] was 2500, the IC50 ([13]; Vero, read-out: IC50 VAR-YAM Vero) was 0.04 µg/mL (≈ 0.153 µM) and the “Cytotoxicity TC50 LLC-MK2” value (LLC-MK2 cells) was >100 µg/mL. For the same molecule, the “protective effect on VAC-infected mice” value (VAC) was “modest protective effect”.

With `O=c1[nH]c(=O)n([C@@H]2O[C@H](CO)[C@@H](O)[C@@H]2O)cc1/C=C/Br` [brovavir, Brovavir] the “inhibitory activity” value [1] was “No other test compounds of this group (acyclovir, brovavir, lobucavir, didanosine, ddC, or d4C) showed any activity; also recorded: failed to inhibit orthopoxvirus replication”.

For `Cc1cn([C@H]2C=C[C@@H](CO)O2)c(=O)[nH]c1=O` [stavudine], the “inhibitory activity” value [1] was “inactive”.

`CC(C)(C)NC(=O)[C@@H]1C[C@@H]2CCCC[C@@H]2CN1C[C@@H](O)[C@H](Cc1ccccc1)NC(=O)[C@H](CC(N)=O)NC(=O)c1ccc2ccccc2n1` [saquinavir, Saquinavir] was tested, and the “inhibitory activity” value [1] was “inactive”.

In the case of `Cc1cn([C@H]2C[C@H](N=[N+]=[N-])[C@@H](CO)O2)c(=O)[nH]c1=O` [zidovudine], the “inhibitory activity” value [1] is reported as “inactive”.

In the case of `Cc1c(O)cccc1C(=O)N[C@@H](CSc1ccccc1)[C@H](O)CN1C[C@H]2CCCC[C@H]2C[C@H]1C(=O)NC(C)(C)C` [nelfinavir, Nelfinavir], the “inhibitory activity” value [1] is reported as “inactive”.

With `Nc1ncnc2c1ncn2CCOCP(=O)(O)O` [PMEA, 9-[2-(phosphonomethoxy)ethyl]adenine] the “inhibitory activity” value [1] was “Neither PMEA nor bis-POM-PMEA was effective”.

With `O=c1[nH]cnc2c1ncn2[C@H]1CC[C@@H](CO)O1` [didanosine] the “inhibitory activity” value [1] was “No other test compounds of this group (acyclovir, brovavir, lobucavir, didanosine, ddC, or d4C) showed any activity”.
